Measured values from US20180000085A1, “USE OF PICOLINAMIDE COMPOUNDS WITH FUNGICIDAL ACTIVITY” (DOW AGROSCIENCES LLC, priority 2014, published 2018).

Tests used:
Zymoseptoria tritici = test: Leaf blotch of wheat (SEPTTR) disease control on wheat seedlings; format: in vivo; set-up: key to SEPTTR 1DP, HV activity at 100 ppm (% control rating) / SEPTTR 3DC, HV activity at 100 ppm (% control rating) / SEPTTR disease control, 1DP / SEPTTR disease control, 3DC / SEPTTR 1DP disease control rating, HV activity / SEPTTR 3DC disease control rating, HV activity / SEPTTR 3DC, LV activity at 125.1 g/H (% Control rating) / SEPTTR 1DP, LV activity at 125.1 g/H (% Control rating) / SEPTTR 1DP disease control rating, LV activity at 125.1 g/H / SEPTTR 3DC disease control rating, LV activity at 125.1 g/H / SEPTTR 3DC disease control rating, HV activity at 100 ppm / SEPTTR 1DP disease control rating, HV activity at 100 ppm / HV activity at 100 ppm SEPTTR 3DC (disease control rating) / HV activity at 100 ppm SEPTTR 1DP (disease control rating) / LV activity at 125.1 g/H SEPTTR 1DP (disease control rating) / LV activity at 125.1 g/H SEPTTR 3DC (disease control rating): A: > 80; B: ≤ 80; C: Not Tested; D: No Activity Observed in the Reported Assay; conditions: for SEPTTR 1DP disease control rating, HV activity / SEPTTR 3DC disease control rating, HV activity: HV application at 100 ppm; for SEPTTR 1DP disease control rating, HV activity / SEPTTR 1DP, LV activity at 125.1 g/H (% Control rating) / LV activity at 125.1 g/H SEPTTR 1DP (disease control rating): 1 Day Protectant; for SEPTTR 1DP disease control rating, HV activity / SEPTTR 3DC disease control rating, HV activity / LV activity at 125.1 g/H SEPTTR 1DP (disease control rating) / LV activity at 125.1 g/H SEPTTR 3DC (disease control rating): wheat leaf blotch; for SEPTTR 3DC disease control rating, HV activity / SEPTTR 3DC, LV activity at 125.1 g/H (% Control rating) / LV activity at 125.1 g/H SEPTTR 3DC (disease control rating): 3 Day Curative; for SEPTTR 1DP disease control rating, HV activity at 100 ppm / SEPTTR 3DC disease control rating, HV activity at 100 ppm: high volume application; for SEPTTR 1DP disease control rating, HV activity at 100 ppm: 1 day protectant; for SEPTTR 3DC disease control rating, HV activity at 100 ppm: 3 day curative; for SEPTTR 1DP, LV activity at 125.1 g/H (% Control rating) / SEPTTR 3DC, LV activity at 125.1 g/H (% Control rating) / LV activity at 125.1 g/H SEPTTR 1DP (disease control rating) / LV activity at 125.1 g/H SEPTTR 3DC (disease control rating): low volume application
Protocol: (§1) All fungicides were evaluated using the aforementioned method for their activity vs. all target diseases, unless stated otherwise. Wheat leaf blotch and brown rust activity were also evaluated using track spray applications, in which case the fungicides were formulated as EC formulations, containing 0.1% Trycol 5941 in the spray solutions. Wheat plants (variety Yuma) were grown from seed in a greenhouse in 50% mineral soil/50% soil-less Metro mix until the first leaf was fully emerged, with 7-10 seedlings per pot. These plants were inoculated with an aqueous spore suspension of Zymoseptoria tritici either prior to or after fungicide treatments. After inoculation the plants were kept in 100% relative humidity (one day in a dark dew chamber followed by two to three days in a lighted dew chamber at 20° C.) to permit spores to germinate and infect the leaf. The plants were then transferred to a greenhouse set at 20° C. for disease to develop. When disease symptoms were fully expressed on the 1st leaves of untreated plants, infection levels were assessed on a scale of 0 to 100 percent disease severity. Percent disease control was calculated using the ratio of disease severity on treated plants relative to untreated plants.

Puccinia triticina = test: Wheat brown rust (PUCCRT) disease control on wheat seedlings; format: in vivo; set-up: key to PUCCRT 3DC, HV activity at 100 ppm (% control rating) / PUCCRT disease control, 3DC / PUCCRT 1DP disease control rating, HV activity / PUCCRT 3DC disease control rating, HV activity / PUCCRT 3DC, LV activity at 125.1 g/H (% Control rating) / PUCCRT 1DP, LV activity at 125.1 g/H (% Control rating) / PUCCRT 3DC disease control rating, LV activity at 125.1 g/H / PUCCRT 1DP disease control rating, LV activity at 125.1 g/H / PUCCRT 3DC disease control rating, HV activity at 100 ppm / PUCCRT 1DP disease control rating, HV activity at 100 ppm / HV activity at 100 ppm PUCCRT 3DC (disease control rating) / LV activity at 125.1 g/H PUCCRT 1DP (disease control rating) / LV activity at 125.1 g/H PUCCRT 3DC (disease control rating): A: > 80; B: ≤ 80; C: Not Tested; D: No Activity Observed in the Reported Assay; conditions: for PUCCRT 1DP disease control rating, HV activity / PUCCRT 3DC disease control rating, HV activity: HV application at 100 ppm; for PUCCRT 1DP disease control rating, HV activity / PUCCRT 1DP, LV activity at 125.1 g/H (% Control rating) / LV activity at 125.1 g/H PUCCRT 1DP (disease control rating): 1 Day Protectant; for PUCCRT 1DP disease control rating, HV activity / PUCCRT 3DC disease control rating, HV activity / LV activity at 125.1 g/H PUCCRT 1DP (disease control rating) / LV activity at 125.1 g/H PUCCRT 3DC (disease control rating): wheat brown rust; for PUCCRT 3DC disease control rating, HV activity / PUCCRT 3DC, LV activity at 125.1 g/H (% Control rating) / LV activity at 125.1 g/H PUCCRT 3DC (disease control rating): 3 Day Curative; for PUCCRT 1DP disease control rating, HV activity at 100 ppm / PUCCRT 3DC disease control rating, HV activity at 100 ppm: high volume application; for PUCCRT 1DP disease control rating, HV activity at 100 ppm: 1 day protectant; for PUCCRT 3DC disease control rating, HV activity at 100 ppm: 3 day curative; for PUCCRT 1DP, LV activity at 125.1 g/H (% Control rating) / PUCCRT 3DC, LV activity at 125.1 g/H (% Control rating) / LV activity at 125.1 g/H PUCCRT 1DP (disease control rating) / LV activity at 125.1 g/H PUCCRT 3DC (disease control rating): low volume application
Protocol: as §1, with “plants. Example B: Evaluation of Fungicidal Activity: Wheat Brown Rust (Puccinia triticina; Synonym: Puccinia recondita f. sp. Tritici; Bayer Code PUCCRT) Wheat plants (variety Yuma) were grown from seed in a greenhouse in 50% mineral soil/50% soil-less Metro mix until the first leaf was fully emerged, with 7-10 seedlings per pot. These plants were inoculated with an aqueous spore suspension of Puccinia triticina either prior to or after fungicide treatments. […] The plants were then transferred to a greenhouse set at 24° C. for disease to develop. Fungicide formulation, application and disease assessment followed the procedures as described in the Example A.” for “plants.”

CCC(CC)[C@@H](Oc1ccc(Cl)cc1)[C@H](C)OC(=O)[C@@H](NC(=O)c1nccc(OC)c1O)C(C)C [Cmpd 407]
SEPTTR 1DP disease control rating, HV activity (Zymoseptoria tritici): B (≤ 80)
SEPTTR 3DC disease control rating, HV activity (Zymoseptoria tritici): D
PUCCRT 1DP disease control rating, HV activity (Puccinia triticina): B (≤ 80)
PUCCRT 3DC disease control rating, HV activity (Puccinia triticina): B (≤ 80)

C=CC[C@@H](OCC(=C)C)[C@H](C)OC(=O)[C@H](C)NC(=O)c1nccc(OC)c1O [Cmpd 1019]
SEPTTR 1DP disease control rating, HV activity at 100 ppm (Zymoseptoria tritici): B (≤ 80)
SEPTTR 3DC disease control rating, HV activity at 100 ppm (Zymoseptoria tritici): A (> 80)
PUCCRT 1DP disease control rating, HV activity at 100 ppm (Puccinia triticina): A (> 80)
PUCCRT 3DC disease control rating, HV activity at 100 ppm (Puccinia triticina): A (> 80)

C=CC[C@@H](OCc1ccccc1)[C@H](C)OC(=O)[C@H](C)NC(=O)c1nccc(OC)c1OCOC(C)=O [Cmpd 516]
SEPTTR 1DP, LV activity at 125.1 g/H (% Control rating) (Zymoseptoria tritici): B (≤ 80)
SEPTTR 3DC, LV activity at 125.1 g/H (% Control rating) (Zymoseptoria tritici): D
PUCCRT 1DP, LV activity at 125.1 g/H (% Control rating) (Puccinia triticina): A (> 80)
PUCCRT 3DC, LV activity at 125.1 g/H (% Control rating) (Puccinia triticina): A (> 80)

CCC(CC)[C@H](Oc1ccc(Cl)cc1Cl)[C@H](C)OC(=O)[C@H](C)NC(=O)c1nccc(OC)c1O [Cmpd 421]
SEPTTR 1DP disease control rating, HV activity (Zymoseptoria tritici): B (≤ 80)
SEPTTR 3DC disease control rating, HV activity (Zymoseptoria tritici): D
PUCCRT 1DP disease control rating, HV activity (Puccinia triticina): B (≤ 80)
PUCCRT 3DC disease control rating, HV activity (Puccinia triticina): D

CCC[C@@H](Oc1ccc(Cl)c(OC)c1)[C@H](C)OC(=O)[C@H](C)NC(=O)c1nccc(OC)c1O [Cmpd 1008]
SEPTTR 1DP disease control rating, HV activity at 100 ppm (Zymoseptoria tritici): B (≤ 80)
SEPTTR 3DC disease control rating, HV activity at 100 ppm (Zymoseptoria tritici): B (≤ 80)
PUCCRT 1DP disease control rating, HV activity at 100 ppm (Puccinia triticina): B (≤ 80)
PUCCRT 3DC disease control rating, HV activity at 100 ppm (Puccinia triticina): B (≤ 80)

CC[C@@H](Cc1ccccc1)[C@H](Oc1ccccc1)[C@H](C)OC(=O)[C@H](C)NC(=O)c1nccc(OC)c1O [Cmpd 313]
SEPTTR 1DP disease control rating, HV activity (Zymoseptoria tritici): A (> 80)
SEPTTR 3DC disease control rating, HV activity (Zymoseptoria tritici): B (≤ 80)
PUCCRT 1DP disease control rating, HV activity (Puccinia triticina): A (> 80)
PUCCRT 3DC disease control rating, HV activity (Puccinia triticina): A (> 80)

COc1ccnc(C(=O)NC(C(=O)OC(C)C(Oc2ccccc2)C(C)C)C(F)(F)F)c1OCOC(C)=O (mixture of isomers) [Cmpd 1073]
LV activity at 125.1 g/H SEPTTR 1DP (disease control rating) (Zymoseptoria tritici): B (≤ 80)
LV activity at 125.1 g/H SEPTTR 3DC (disease control rating) (Zymoseptoria tritici): B (≤ 80)
LV activity at 125.1 g/H PUCCRT 1DP (disease control rating) (Puccinia triticina): A (> 80)
LV activity at 125.1 g/H PUCCRT 3DC (disease control rating) (Puccinia triticina): A (> 80)

CCOc1ccnc(C(=O)N[C@@H](C)C(=O)O[C@@H](C)[C@@H](CC(C)C)Oc2ccc(Cl)c(OC)c2)c1OC(C)=O [Cmpd 1110]
LV activity at 125.1 g/H SEPTTR 1DP (disease control rating) (Zymoseptoria tritici): D
LV activity at 125.1 g/H SEPTTR 3DC (disease control rating) (Zymoseptoria tritici): D
LV activity at 125.1 g/H PUCCRT 1DP (disease control rating) (Puccinia triticina): D
LV activity at 125.1 g/H PUCCRT 3DC (disease control rating) (Puccinia triticina): D

COc1ccnc(C(=O)N[C@@H](C)C(=O)O[C@@H](C)[C@H](Oc2ccc(-c3ccccc3)cc2)C(C)C)c1OC(C)=O [Cmpd 625]
SEPTTR 1DP, LV activity at 125.1 g/H (% Control rating) (Zymoseptoria tritici): D
SEPTTR 3DC, LV activity at 125.1 g/H (% Control rating) (Zymoseptoria tritici): D
PUCCRT 1DP, LV activity at 125.1 g/H (% Control rating) (Puccinia triticina): A (> 80)
PUCCRT 3DC, LV activity at 125.1 g/H (% Control rating) (Puccinia triticina): B (≤ 80)
